# Source: US20220387403A1, “COMPOUNDS, COMPOSITIONS AND METHODS FOR TREATING NASH, NAFLD, AND OBESITY” (CVI Pharmaceuticals Limited, priority 2019, published 2022)
# Where two headings read alike, the source gives them in different places.
# What was measured:
# hyperlipidemic rabbits [1] = assay: Lipid lowering effects and blood chemistry in hyperlipidemic rabbits; conditions: for serum total cholesterol level: in mM
# hyperlipidemic rabbits [2] = conditions: rabbit, in vivo
# HepG2 cells = assay: DiI-LDL uptake (LDLR ligand uptake activity) in HepG2 cells; format: cell-based, human; conditions: for Activity on DiI-LDL uptake: A, compound dose ≤ 10 μM, 20 hours
# Procedure: HepG2 cells (2×10^5 cells/well) in 24-well culture plates were treated with various compounds at indicated concentrations for 20 hours. The fluorescent 1.1′-dioctadecyl-3,3,3′,3′-tetramethylindocarbocyanin perchlorate (DiI-LDL) (Biomedical Technologies, Stoughton, Mass.) at a concentration of 2 μg/mL was added to cells at the end of treatment. After 4 hours, the medium was removed, cells were washed with cold PBS, and were examined immediately under a fluorescent microscope (Nikon) at 200× amplification. The fluorescent intensity in compound-treated cells was compared to that in untreated control cells. […] In these experiments berberine chloride was used for comparison.
# The combined beneficial effects of these novel compounds on elevation of LDLR mRNA levels likely through the mechanism of mRNA stabilization and their inhibitory activity towards PCSK9, the secreted protease that degrades LDLR protein, result in strong increases in LDL ligand uptake activity through increased receptor surface abundance. […] Briefly, HepG2 cells (2×10^5 cells/well) in 24-well culture plates were treated with various compounds at 10 and 40 uM concentrations for 20 hours. The fluorescent 1. 1′-dioctadecyl-3,3,3′, 3′-tetramethylindocarbocyanin perchlorate (DiI-LDL) (Biomedical Technologies, Stoughton, Mass.) at a concentration of 2 μg/ml was added to cells at the end of treatment. After 4 hours, the medium was removed; cells were washed with cold PBS, and were examined immediately under a fluorescent microscope (Nikon) at 200× amplification. The fluorescent intensity in compound-treated cells was compared to that in untreated control cells. […]
# LDLR mRNA = LDLR mRNA expression in HepG2 cells, quantitative real-time RT-PCR; format: cell-based, human; conditions: 24 hours; for Activity on LDLR mRNA expression (Fold of control): dose less than or equal to 10 μM; for Activity on LDLR mRNA at 40 uM (fold of control) / Activity on LDLR mRNA at 10 uM (fold of control): mean ± s.d.
# Procedure: Activities of some compounds of Formulas I, II, III, and IV on LDLR mRNA expression were determined. HepG2 cells were treated with new compounds individually at a dose less than or equal to 10 μM for 24 hours. Total RNA was harvested for quantitative real-time RT-PCR analysis using the method described in Example 16B. […] In these experiments, berberine chloride was included for comparison. […]
# Total RNA was harvested for quantitative real-time RT-PCR analysis using method described in Examples 16B.
# The effects of 23 compounds on the mRNA expressions of LDLR and PCSK9 were examined using quantitative real-time RT-PCR assays. HepG2 cells were treated with various compounds at 10 and 40 uM concentrations for 24 hours. Total RNA was isolated and 2 μg was used to generate cDNA in a reaction containing random primers and M-MLV at 37° C. for 1 h in a volume of 25 μl. Real-time PCR was performed on the cDNA using MCEP REALPLEX 2 SYSTEM (Eppendorf) and Universal MasterMix (Applied Biosystems). Human LDLR, PCSK9, and GAPDH Pre-Developed TaqMan Assay Reagents (Applied Biosystems) were used to assess the levels of mRNA expressions in HepG2. The levels of LDLR and PCSK9 mRNA were normalized to that of GAPDH. Each RNA samples was assayed in duplicate. The fold activity was calculated by dividing mRNA abundance in compound treated cells with that of control.
# NAFLD hamster model = assay: High fat and high cholesterol diet induced NAFLD hamster model; format: in vivo; conditions: C128 10, 20 and 40 mg/kg; fenofibrate 50 mg/kg; 4 weeks
# Procedure: In a high fat and high cholesterol diet (HFHCD) induced non-alcoholic fat liver disease (NAFLD) hamster model, hamsters were fed a HFHCD for two weeks then treated for 4 weeks with C128 at 10 mg/kg, 20 mg/kg and 40 mg/kg, along with fenofibrate at 50 mg/kg as a positive control. Serum lipids and liver enzymes were measured using standard techniques. Liver tissue histopathology with Oil-red O staining and H&E staining were also performed.
# In a high fat and high cholesterol diet (HFHCD) induced NAFLD hamster model, hamsters were fed a HFHCD for two weeks then treated for 4 weeks with C127 at 80 mg/kg or with fenofibrate 50 mg/kg.
# [3] = after 14 days of drug treatment, mean, n = 6
# [4] = treatment day 0 (before the drug treatment), mean ± SD, n = 6
# [5] = treatment day 4, 128(+)/128(−) 30 mg/kg, SMV/ATV 3 mg/kg once a day oral gavage
# [6] = treatment day 7, 128(+)/128(−) 30 mg/kg, SMV/ATV 3 mg/kg once a day oral gavage
# [7] = treatment day 10, from day 7 128(+)/128(−) 60 mg/kg, SMV/ATV 10 mg/kg
# [8] = treatment day 14, from day 7 128(+)/128(−) 60 mg/kg, SMV/ATV 10 mg/kg
# [9] = 40 uM, 20 hours (second symbol of the cell)
# [10] = 10 uM, 20 hours (first symbol of the cell)
compound,measurement,setting,value
"CC(C)c1c(C(=O)Nc2ccccc2)c(-c2ccccc2)c(-c2ccc(F)cc2)n1CC[C@@H](O)C[C@@H](O)CC(=O)O [ATV, atorvastatin, reference compound]",HDL-C,hyperlipidemic rabbits [1]; [3],3.6 mmol/L
same,LDL-C,hyperlipidemic rabbits [1]; [3],29.6 mmol/L
same,TC,hyperlipidemic rabbits [1]; [3],33.9 mmol/L
same,TG,hyperlipidemic rabbits [1]; [3],1.7 mmol/L
same,serum total cholesterol level,hyperlipidemic rabbits [1]; [4],28.9 ± 6.0
same,serum total cholesterol level,hyperlipidemic rabbits [1]; [5],26.5 ± 5.2
same,serum total cholesterol level,hyperlipidemic rabbits [1]; [6],31.5 ± 4.9
same,serum total cholesterol level,hyperlipidemic rabbits [1]; [7],32.5 ± 4.5
same,serum total cholesterol level,hyperlipidemic rabbits [1]; [8],33.9 ± 6.5
same,ALP,hyperlipidemic rabbits [2],333.5 IU/L
same,ALT,hyperlipidemic rabbits [2],795.6 IU/L
same,AST,hyperlipidemic rabbits [2],767.0 IU/L
same,CK,hyperlipidemic rabbits [2],7270.0 U/L
same,CREA,hyperlipidemic rabbits [2],238.2 µmol/L
same,GLU,hyperlipidemic rabbits [2],6.7 mmol/L
same,LDH,hyperlipidemic rabbits [2],675.0 IU/L
"COc1ccc2c(c1O)CN1CCc3cc4c(cc3C1C2)OCO4 (stereo not drawn) [Compound 34, 10-methoxy-5,6,7,8,13,13a-hexahydro-2H-1,3-dioxolano[4,5-g]isoquinolino[3,2-a]isoqunolin-9-ol]",Activity on DiI-LDL uptake,HepG2 cells,++
same,Activity on LDLR mRNA expression (Fold of control),LDLR mRNA,1.76 ± 0.17 Fold of control
"COc1ccc2c(c1OC(=O)NC(C)C)CN1CCc3cc4c(cc3C1C2)OCO4 (stereo not drawn) [Compound 41, (10-methoxy(5,6,7,8,13,13a-hexahydro-2H-1,3-dioxolano[4,5-g]isoquinolino[3,2-a]isoquinolin-9-yloxy))-N-(methylethyl)carboxamide]",Activity on DiI-LDL uptake,HepG2 cells,++
same,Activity on LDLR mRNA expression (Fold of control),LDLR mRNA,1.60 ± 0.03 Fold of control
"COc1ccc2c(c1OC(=O)N(C)C)CN1CCc3cc4c(cc3C1C2)OCO4 (stereo not drawn) [Compound 43, (10-methoxy(5,6,7,8,13,13a-hexahydro-2H-1,3-dioxolano[4,5-g]isoquinolino[3,2-a]isoquinolin-9-yloxy))-N,N-dimethylcarboxamide]",Activity on DiI-LDL uptake,HepG2 cells,++
same,Activity on LDLR mRNA expression (Fold of control),LDLR mRNA,1.95 ± 0.18 Fold of control
"COc1ccc2c(c1OC(=O)Nc1ccc(OC(F)(F)F)cc1)CN1CCc3cc4c(cc3C1C2)OCO4 (stereo not drawn) [Compound 44, (10-methoxy(5,6,7,8,13,13a-hexahydro-2H-1,3-dioxolano[4,5-g]isoquinolino[3,2-a]isoquinolin-9-yloxy))-N-[4-(trifluoromethoxy)phenyl]carbox-amide]",Activity on DiI-LDL uptake,HepG2 cells,++
same,Activity on LDLR mRNA expression (Fold of control),LDLR mRNA,2.20 ± 0.06 Fold of control
COc1cc(NC(=O)Oc2c(OC)ccc3c2CN2CCc4cc5c(cc4C2C3)OCO5)cc(OC)c1 (stereo not drawn) [Compound 45],Activity on DiI-LDL uptake,HepG2 cells,++
same,Activity on LDLR mRNA expression (Fold of control),LDLR mRNA,2.09 ± 0.11 Fold of control
"COc1ccc2c(c1OC(=O)Nc1cccc(C)c1)CN1CCc3cc4c(cc3C1C2)OCO4 (stereo not drawn) [Compound 46, (10-methoxy(5,6,7,8,13,13a-hexahydro-2H-1,3-dioxolano[4,5-g]isoquinolino[3,2-a]isoquinolin-9-yloxy))-N-(3-methylphenyl)carboxamide]",Activity on DiI-LDL uptake,HepG2 cells,++
same,Activity on LDLR mRNA expression (Fold of control),LDLR mRNA,1.80 ± 0.16 Fold of control
"CCOC(=O)Oc1c(OC)ccc2c1CN1CCc3cc4c(cc3C1C2)OCO4 (stereo not drawn) [Compound 48, 10-methoxy-5,6,7,8,13,13a-hexahydro-2H-1,3-dioxolano[4,5-g]isoquinolino[3,2-a]isoquinolin-9-yl ethoxyformate]",Activity on LDLR mRNA expression (Fold of control),LDLR mRNA,1.45 ± 0.15 Fold of control
"COc1ccc2c(c1OC(=O)Nc1ccccc1)CN1CCc3cc4c(cc3C1C2)OCO4 (stereo not drawn) [Compound 61, (10-methoxy(5,6,7,8,13,13a-hexahydro-2H-1,3-dioxolano[4,5-g]isoquinolino[3,2-a]isoquinolin-9-yloxy))-N-benzamide]",Activity on LDLR mRNA expression (Fold of control),LDLR mRNA,1.33 ± 0.53 Fold of control
"COc1ccc2c(c1)CCN1Cc3c(ccc(OC)c3OS(=O)(=O)c3ccccc3)CC21 (stereo not drawn) [Compound 115, 3,10-Dimethoxy-5,6,7,8,13,13a-hexahydroisoquinolino[2,1-b]isoquinolin-9-yl benzenesulfonate]",Activity in LDL uptake (relative to control),HepG2 cells; [9],+++
same,Activity on LDLR mRNA at 40 uM (fold of control),LDLR mRNA,2.65 ± 0.06 fold of control
"COc1ccc2c(c1OS(=O)(=O)c1ccccc1)CN1CCc3cc4c(cc3C1C2)OCCO4 (stereo not drawn) [Compound 116, 11-Methoxy-6,7,8,9,14,14a-hexahydro-2H,3H-1,4-dioxano[5,6-g]isoquinolino[3,2-a]isoquinolin-10-yl benzenesulfonate]",Activity in LDL uptake (relative to control),HepG2 cells; [10],+++/+++
same,Activity in LDL uptake (relative to control),HepG2 cells; [9],+++/+++
"COc1ccc2c(c1OS(=O)(=O)c1ccccc1)CN1CCc3cc(C)ccc3C1C2 (stereo not drawn) [Compound 121, 10-Methoxy-3-methyl-5,6,7,8,13,13a-hexahydroisoquinolino[2,1-b]isoquinolin-9-yl benzenesulfonate]",Activity on LDLR mRNA at 10 uM (fold of control),LDLR mRNA,3.56 ± 0.03 fold of control
same,Activity on LDLR mRNA at 40 uM (fold of control),LDLR mRNA,3.43 ± 0.81 fold of control
"COc1cc2c(cc1OC)C1C(C)c3ccc(OC)c(OS(=O)(=O)c4ccccc4)c3CN1CC2 (stereo not drawn) [Compound 139, 2,3,10-Trimethoxy-13-methyl-5,6,7,8,13,13a-hexahydro-isoquinolino[2,1-b]isoquinolin-9-yl benzensulfonate]",Activity on LDLR mRNA at 10 uM (fold of control),LDLR mRNA,11.5 ± 1.29 fold of control
same,Activity on LDLR mRNA at 40 uM (fold of control),LDLR mRNA,3.02 ± 0.34 fold of control
"COc1ccc2c(c1)CCN1Cc3c(ccc(OC)c3OS(=O)(=O)c3ccccc3)C(C)C21 (stereo not drawn) [Compound 140, 3,10-Dimethoxy-13-methyl-5,6,7,8,13,13a-hexahydro-isoquinolino[2,1-b]isoquinolin-9-yl benzenesulfonate]",Activity on LDLR mRNA at 10 uM (fold of control),LDLR mRNA,6.65 ± 0.68 fold of control
"COc1ccc2c(c1)CCN1Cc3c(cccc3OS(=O)(=O)c3cccc(F)c3)CC21 (stereo not drawn) [Compound 150, 3-methoxy-5,6,7,8,13,13a-hexahydroisoquinolino[2,1-b]isoquinolin-9-yl 3-fluorobenzenesulfonate]",Activity in LDL uptake (relative to control),HepG2 cells; [10],+/+
same,Activity in LDL uptake (relative to control),HepG2 cells; [9],+/+
"CCC(C)(C)C(=O)O[C@H]1C[C@@H](C)C=C2C=C[C@H](C)[C@H](CC[C@@H]3C[C@@H](O)CC(=O)O3)[C@H]21 [SMV, simvastatin, reference compound]",ALP,hyperlipidemic rabbits [1]; [3],288.7 IU/L
same,CREA,hyperlipidemic rabbits [1]; [3],242.2 µmol/L
same,HDL-C,hyperlipidemic rabbits [1]; [3],2.9 mmol/L
same,LDH,hyperlipidemic rabbits [1]; [3],530.3 IU/L
same,LDL-C,hyperlipidemic rabbits [1]; [3],23.3 mmol/L
same,TC,hyperlipidemic rabbits [1]; [3],26.2 mmol/L
same,TG,hyperlipidemic rabbits [1]; [3],1.7 mmol/L
same,serum total cholesterol level,hyperlipidemic rabbits [1]; [4],28.8 ± 7.4
same,serum total cholesterol level,hyperlipidemic rabbits [1]; [5],24.8 ± 6.1
same,serum total cholesterol level,hyperlipidemic rabbits [1]; [6],26.1 ± 4.4
same,serum total cholesterol level,hyperlipidemic rabbits [1]; [7],25.4 ± 6.1
same,serum total cholesterol level,hyperlipidemic rabbits [1]; [8],26.2 ± 5.5
same,CK,hyperlipidemic rabbits [2],6492.8 U/L
same,GLU,hyperlipidemic rabbits [2],7.9 mmol/L
"CN1CCc2cc3c(cc2[C@H]1[C@@H]1O[C@H](O)c2c1ccc1c2OCO1)OCO3 [d-(+)-EGN, (+)-egenine]",Activity on DiI-LDL uptake,HepG2 cells,+
"CC(C)OC(=O)C(C)(C)Oc1ccc(C(=O)c2ccc(Cl)cc2)cc1 [fenofibrate, reference compound]",Body and liver weights,NAFLD hamster model,elevated by a statistically significant amount
